We go through 52 molecules from patent publication US20200325505A1, “FILAMENTOUS FUNGI CAPABLE OF PRODUCING VERY LONG CHAIN FATTY ACIDS” (UT-Battelle, LLC, priority 2019, published 2020).

The subject of this data set is Mortierella elongata AG77. Briefly: Carbon source utilisation in Biolog 96-well plates, formazan formation after tetrazolium addition. It is filed as cell-based. The settings on record: for Metabolized: Metabolized = more formazan formation than a control containing no carbon source, observed visually at 2 h, 24 h, 148 h; for Carbon sources that Mortierella elongata AG77 can metabolize: summary of Table 3. Here is the method: Two 300 mL volumes of growth medium comprising 1 g/L KH2PO4, 1 g/L MgSO4 7H2O, 0.1 g/L CaCl2, 0.02 g/L FeNaEDTA, 0.1 g/L NaCl, and either 1 g/L NH4NO3 or 20 g/L sucrose were prepared. Acidity was adjusted to 5.5 using NaOH and volumes of growth medium were autoclaved 30 min at 121° C. to sterilize. Aliquots of 200 μL of carbon-free medium or nitrogen-free medium were pipetted into each well of a set of 96-well plates previously prepared with lyophilized putative carbon or nitrogen sources (Biolog Inc., Hayward, Calif.). Inocula were prepared by perforating a culture of Mortierella elongata AG77 grown on 20 g/L potato dextrose agar with a 3 mm diameter cork borer and separating the surface mycelial mat from the solid growth medium using tweezers. Each well was inoculated with one inoculum. Cultures were incubated at 21° C. for 24 hours to allow metabolic changes to stabilize, and then 100 μL of 3 g/L tetrazolium chloride in water was added to each well. Formazan formation was observed visually at 2 h, 24 h, and 148 h.
Conclusions were based on rate and intensity of formazan formation using the 3-4,5-dimethylthiazol-2-yl)-2,5-diphenyltetrazolium bromide (MTT) assay. “Metabolized” indicates more formazan formation than a control containing no carbon source, and “Toxic” indicates less formazan formation than a control containing no carbon source. “Metabolized” and “Toxic” assignments are mutually exclusive. In this example, a compound may be “Metabolized” or “Toxic,” but not both.

The mark [1] stands for this setting: compound as carbon source, Toxic = less formazan formation than a control containing no carbon source.

Read-outs that look alike come from different tables or passages of the source.

`OC[C@H]1O[C@H](OC[C@H]2OC(O)(CO)[C@@H](O)[C@@H]2O)[C@H](O)[C@@H](O)[C@@H]1O` (stereo partly shown) [Palatinose]: the “Carbon sources that Mortierella elongata AG77 can metabolize” value is “can metabolize”. Besides, the Metabolized entry (compound as carbon source) is “yes”. Also, the Toxic entry under setting [1] is “no”.

As to `CCC(=O)O` [Propionic Acid], the Toxic entry is on record as “no”. In addition, the Metabolized result (compound as carbon source) was “no”.

With `CC(=O)C(=O)O` [Pyruvic Acid], the Metabolized entry (compound as carbon source) is given as “no”. For the same molecule, under setting [1], the Toxic entry is recorded as “no”.

On to `O=C(O)[C@]1(O)C[C@@H](O)[C@@H](O)[C@H](O)C1` [Quinic Acid], for which the Toxic result is on record as “no”. Moreover, the Metabolized result (compound as carbon source) is listed as “no”.

Turning to `OCc1ccccc1O[C@@H]1O[C@H](CO)[C@@H](O)[C@H](O)[C@H]1O` [Salicin], the Toxic entry was “no” and the “Carbon sources that Mortierella elongata AG77 can metabolize” value is given as “can metabolize”. Further, the Metabolized entry (compound as carbon source) is on record as “yes”.

Turning to `O=C(O)CCCCCCCCC(=O)O` [Sebacic Acid], the Toxic result is “no”. Besides, where the note is “compound as carbon source”, the Metabolized result is listed as “no”.

Regarding `CCC(C)N` (stereo not shown) [Sec-Butylamine], the Metabolized result (compound as carbon source) is recorded as “no”. Moreover, the Toxic result under setting [1] is reported as “no”.

Regarding `OC[C@@]12OC[C@@H](O1)[C@@H](O)[C@@H](O)[C@@H]2O` [Sedoheptulosan], the Metabolized entry (compound as carbon source) is given as “no”. Further, under setting [1], the Toxic entry is recorded as “no”.

With `C/C=C/C=C/C(=O)O` [Sorbic Acid], the Toxic entry is on record as “no”. Further, the Metabolized result (compound as carbon source) is recorded as “no”.

For `OC[C@H]1O[C@H](OC[C@H]2O[C@H](OC[C@H]3O[C@H](O[C@]4(CO)O[C@H](CO)[C@@H](O)[C@@H]4O)[C@H](O)[C@@H](O)[C@@H]3O)[C@H](O)[C@@H](O)[C@H]2O)[C@H](O)[C@@H](O)[C@H]1O` [Stachyose], for the setting “compound as carbon source”, the Metabolized result was “no”. The Toxic entry under setting [1] is “no”.

Turning to `NC(=O)CCC(=O)O` [Succinamic Acid], the Metabolized entry (compound as carbon source) is listed as “no”. Besides, the Toxic result under setting [1] was “no”.

Regarding `O=C(O)CCC(=O)O` [Succinic Acid], the Toxic entry is recorded as “no”. Further, the Metabolized result (compound as carbon source) is listed as “no”.

Regarding `OC[C@H]1O[C@@](CO)(O[C@H]2O[C@H](CO)[C@@H](O)[C@H](O)[C@H]2O)[C@@H](O)[C@@H]1O` [Sucrose], the Toxic entry is “no”. Also, for the setting “compound as carbon source”, the Metabolized entry is on record as “no”.

For the molecule `O=C(O)CC(CC(=O)O)C(=O)O` [Tricarballylic Acid], the Toxic result is listed as “no” and the “Carbon sources that Mortierella elongata AG77 can metabolize” value is listed as “can metabolize”. For the same molecule, the Metabolized result (compound as carbon source) is on record as “yes”.

`O=C(CO)[C@@H](O[C@H]1O[C@H](CO)[C@@H](O)[C@H](O)[C@H]1O)[C@H](O)[C@H](O)CO` [Turanose]: the Metabolized result (compound as carbon source) is “no”. Moreover, the Toxic result under setting [1] was “no”.

For `OC[C@@H](O)[C@H](O)[C@@H](O)CO` [Xylitol], the Toxic result is on record as “no”. Further, the Metabolized result (compound as carbon source) is recorded as “no”.

For `CO[C@H]1O[C@H](CO)[C@@H](O)[C@H](O)[C@H]1O` [a-Methyl-D-Glucoside], the “Carbon sources that Mortierella elongata AG77 can metabolize” value is “can metabolize”. Under “compound as carbon source”, the Metabolized result is “yes”. In addition, under setting [1], the Toxic entry is listed as “no”.

As to `OC[C@@H](O)[C@@H](O)CO` [i-Erythritol], the Metabolized result (compound as carbon source) is on record as “no”. Also, the Toxic result under setting [1] is listed as “no”.

Take `O=C(O)Cc1cccc(O)c1` [m-Hydroxy Phenyl Acetic Acid]: the Metabolized result (compound as carbon source) is given as “no”. In addition, under setting [1], the Toxic entry was “no”.

Consider `O[C@H]1[C@H](O)[C@@H](O)[C@H](O)[C@@H](O)[C@H]1O` [m-Inositol], for which the “Carbon sources that Mortierella elongata AG77 can metabolize” value is reported as “can metabolize”. Further, the Metabolized entry (compound as carbon source) is listed as “yes”. Further, under setting [1], the Toxic result was “no”.

Regarding `O=C(O)C(O)C(O)C(=O)O` (stereo not shown) [m-Tartaric Acid], the “Carbon sources that Mortierella elongata AG77 can metabolize” value was “can metabolize”. In addition, the Metabolized entry (compound as carbon source) is “yes”.

For `O=C(O)Cc1ccc(O)cc1` [p-Hydroxy Phenyl Acetic Acid], under “compound as carbon source”, the Metabolized entry is listed as “no”. In addition, under setting [1], the Toxic entry is listed as “no”.

Take `OC[C@H]1O[C@@H]2O[C@H]3[C@H](O)[C@@H](O)[C@@H](O[C@H]4[C@H](O)[C@@H](O)[C@@H](O[C@H]5[C@H](O)[C@@H](O)[C@@H](O[C@H]6[C@H](O)[C@@H](O)[C@@H](O[C@H]7[C@H](O)[C@@H](O)[C@@H](O[C@H]1[C@H](O)[C@H]2O)O[C@@H]7CO)O[C@@H]6CO)O[C@@H]5CO)O[C@@H]4CO)O[C@@H]3CO` [α-Cyclodextrin]: the Metabolized entry (compound as carbon source) is listed as “no”. Also, the Toxic result under setting [1] is listed as “no”.

In the case of `OC[C@H]1O[C@H](O)[C@H](O)[C@@H](O)[C@@H]1O` [α-D-Glucose], the Toxic result is “no”. Further, for the setting “compound as carbon source”, the Metabolized result is given as “no”.

Turning to `OC[C@H]1O[C@@H](O[C@H]2[C@H](O)[C@@H](O)[C@@H](O)O[C@@H]2CO)[C@H](O)[C@@H](O)[C@H]1O` [α-D-Lactose], the Metabolized entry (compound as carbon source) is given as “no”.

With `CCC(O)C(=O)O` (stereo not drawn) [α-Hydroxy Butyric Acid], where the note is “compound as carbon source”, the Metabolized result is “no”. Under setting [1], the Toxic result is “no”.

As to `O=C1CCC(C(=O)O)O1` (stereo not drawn) [α-Hydroxy Glutaric Acid-γ-Lactone], the Metabolized result (compound as carbon source) is given as “no”. Also, the Toxic result under setting [1] is given as “no”.

On to `CCC(=O)C(=O)O` [α-Keto-Butyric Acid], for which, under “compound as carbon source”, the Metabolized entry is on record as “no”. In addition, the Toxic result under setting [1] is given as “no”.

On to `O=C(O)CCC(=O)C(=O)O` [α-Keto-Glutaric Acid], for which, under setting [1], the Toxic entry is “no”.

On to `CCCC(=O)C(=O)O` [α-Keto-Valeric Acid], for which, under “compound as carbon source”, the Metabolized result is given as “no”. Further, the Toxic result under setting [1] is given as “no”.

With `COC1OC(CO)C(O)C(O)C1O` [α-Methyl-D-Galactoside], the “Carbon sources that Mortierella elongata AG77 can metabolize” value is listed as “can metabolize”. Besides, under “compound as carbon source”, the Metabolized result is “yes”. Moreover, under setting [1], the Toxic result is reported as “no”.

Turning to `COC1OC(CO)C(O)C(O)C1O` [α-Methyl-D-Mannoside], the Metabolized entry (compound as carbon source) is reported as “no”. Also, the Toxic entry under setting [1] is listed as “no”.

For the molecule `OC[C@H]1O[C@@H]2O[C@H]3[C@H](O)[C@@H](O)[C@@H](O[C@H]4[C@H](O)[C@@H](O)[C@@H](O[C@H]5[C@H](O)[C@@H](O)[C@@H](O[C@H]6[C@H](O)[C@@H](O)[C@@H](O[C@H]7[C@H](O)[C@@H](O)[C@@H](O[C@H]8[C@H](O)[C@@H](O)[C@@H](O[C@H]1[C@H](O)[C@H]2O)O[C@@H]8CO)O[C@@H]7CO)O[C@@H]6CO)O[C@@H]5CO)O[C@@H]4CO)O[C@@H]3CO` [β-Cyclodextrin], the Metabolized entry (compound as carbon source) is given as “no”. The Toxic entry under setting [1] is listed as “no”.

Take `OC[C@H]1O[C@@H](O)[C@H](O)[C@H](O)[C@@H]1O` [β-D-Allose]: the Toxic result is on record as “no”. Moreover, the Metabolized entry (compound as carbon source) is given as “no”.

`CC(O)CC(=O)O` (stereo not drawn) [β-Hydroxy Butyric Acid]: the Toxic result is recorded as “no”. For the same molecule, under “compound as carbon source”, the Metabolized result is “no”.

Take `CO[C@@H]1O[C@H](CO)[C@@H](O)[C@H](O)[C@H]1O` [β-Methyl-D-Galactoside]: the “Carbon sources that Mortierella elongata AG77 can metabolize” value was “can metabolize”. The Metabolized result (compound as carbon source) is reported as “yes”. Also, under setting [1], the Toxic entry is given as “no”.

As to `CO[C@@H]1O[C@H](CO)[C@@H](O)[C@H](O)[C@H]1O` [β-Methyl-D-Glucoside], the Metabolized result (compound as carbon source) is given as “no”. In addition, the Toxic result under setting [1] is on record as “no”.

As to `CO[C@@H]1O[C@H](C(=O)O)[C@@H](O)[C@H](O)[C@H]1O` [β-Methyl-D-Glucuronic Acid], where the note is “compound as carbon source”, the Metabolized entry is given as “no”. In addition, under setting [1], the Toxic result is on record as “no”.

For the molecule `COC1OCC(O)C(O)C1O` [β-Methyl-D-Xyloside], the Metabolized result (compound as carbon source) is “no”. Besides, the Toxic entry under setting [1] was “no”.

As to `OC[C@H]1O[C@@H]2O[C@H]3[C@H](O)[C@@H](O)[C@@H](O[C@H]4[C@H](O)[C@@H](O)[C@@H](O[C@H]5[C@H](O)[C@@H](O)[C@@H](O[C@H]6[C@H](O)[C@@H](O)[C@@H](O[C@H]7[C@H](O)[C@@H](O)[C@@H](O[C@H]8[C@H](O)[C@@H](O)[C@@H](O[C@H]9[C@H](O)[C@@H](O)[C@@H](O[C@H]1[C@H](O)[C@H]2O)O[C@@H]9CO)O[C@@H]8CO)O[C@@H]7CO)O[C@@H]6CO)O[C@@H]5CO)O[C@@H]4CO)O[C@@H]3CO` [γ-Cyclodextrin], the Metabolized entry (compound as carbon source) is recorded as “no”. In addition, the Toxic result under setting [1] is reported as “no”.

With `O=C(O)CCCO` [γ-Hydroxy Butyric Acid], the Metabolized result (compound as carbon source) was “no”. Under setting [1], the Toxic result was “no”.

As for Chondroitin Sulfate C, the Toxic result was “no”.

In the case of Dextrin, the Toxic result is on record as “no”.

Take Gelatin: the Toxic result is listed as “no”.

As to Gentiobiose, the Metabolized entry (compound as carbon source) is on record as “no”.

For the molecule Glycogen, the Toxic entry is reported as “no”.

Regarding Laminarin, the Toxic result is listed as “no”.

As for Maltotriose, the “Carbon sources that Mortierella elongata AG77 can metabolize” value is listed as “can metabolize”. Under “compound as carbon source”, the Metabolized result is on record as “yes”. The Toxic result under setting [1] was “no”.

For the molecule Mannan, the Toxic entry is “no”.

Turning to Pectin, the Toxic entry is listed as “no”.

With Tween 20, the “Carbon sources that Mortierella elongata AG77 can metabolize” value was “can metabolize”. Where the note is “compound as carbon source”, the Metabolized entry is recorded as “yes”. Besides, the Toxic entry under setting [1] is on record as “no”.

As for Tween 40, the Metabolized entry (compound as carbon source) is “no”. The Toxic entry under setting [1] is “no”.
